Measured values from PubChem BioAssay AID248 (DTP/NCI, 2004).
Inconclusive results and toxic doses are left out. Cut-off read from the data, not from the text of the source: active = T/C of 150% or more; inactive = T/C below 125%.

Tested on: L1210 leukemia ip in BDF1 mice, survival T/C
Test: NCI In Vivo Anticancer Drug Screen. Data for tumor model L1210 Leukemia (intraperitoneal) in B6D2F1 (BDF1) mice
Conditions: endpoint: mean survival time, higher = longer survival
Outline: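 Transplantable tumor model; survival measured in treated vs vehicle control mice. Value = treated/control.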

[1] = dose: 100.0 mg/kg/injection, schedule: Q04DX003 (ip), vehicle: Klucel (hydroxypropylcellulose) (HPC)
[2] = dose: 100.0 mg/kg/injection, schedule: Q01DX009 (ip), vehicle: Klucel (hydroxypropylcellulose) (HPC)
[3] = dose: 200.0 mg/kg/injection, schedule: Q01DX009 (ip), vehicle: Klucel (hydroxypropylcellulose) (HPC)
[4] = dose: 400.0 mg/kg/injection, schedule: Q01DX009 (ip), vehicle: Klucel (hydroxypropylcellulose) (HPC)
[5] = dose: 100.0 mg/kg/injection, schedule: Q04DX003 (ip), vehicle: saline with Tween-80
[6] = dose: 200.0 mg/kg/injection, schedule: Q04DX003 (ip), vehicle: saline with Tween-80
[7] = dose: 400.0 mg/kg/injection, schedule: Q04DX003 (ip), vehicle: saline with Tween-80
[8] = dose: 200.0 mg/kg/injection, schedule: Q04DX003 (ip), vehicle: Klucel (hydroxypropylcellulose) (HPC)
[9] = dose: 400.0 mg/kg/injection, schedule: Q04DX003 (ip), vehicle: Klucel (hydroxypropylcellulose) (HPC)
[10] = dose: 100.0 mg/kg/injection, schedule: Q04DX002 (ip), vehicle: saline with Tween-80
[11] = dose: 200.0 mg/kg/injection, schedule: Q04DX002 (ip), vehicle: saline with Tween-80
[12] = dose: 50.0 mg/kg/injection, schedule: Q01DX009 (ip), vehicle: saline with Tween-80
[13] = dose: 100.0 mg/kg/injection, schedule: Q01DX009 (ip), vehicle: saline with Tween-80
[14] = dose: 200.0 mg/kg/injection, schedule: Q01DX009 (ip), vehicle: saline with Tween-80
[15] = dose: 100.0 mg/kg/injection, schedule: Q04DX002 (ip), vehicle: saline
[16] = dose: 200.0 mg/kg/injection, schedule: Q04DX002 (ip), vehicle: saline

Measured: T/C

Nc1ccc2nc(N)nc(N)c2c1
inactive: dose: 37.5 mg/kg/injection, schedule: Q01DX009 (ip), vehicle: Klucel (hydroxypropylcellulose) (HPC) 121 % of control | dose: 65.0 mg/kg/injection, schedule: Q04DX003 (ip), vehicle: Klucel (hydroxypropylcellulose) (HPC) 106 % of control | dose: 75.0 mg/kg/injection, schedule: Q01DX009 (ip), vehicle: Klucel (hydroxypropylcellulose) (HPC) 107 % of control | [1] 112 % of control | dose: 150.0 mg/kg/injection, schedule: Q04DX003 (ip), vehicle: Klucel (hydroxypropylcellulose) (HPC) 112 % of control

Cc1ccc(NC(=O)C(=O)Nc2ccc(C)cc2)cc1
inactive: [2] 90 % of control | dose: 100.0 mg/kg/injection, schedule: Q04DX003 (ip), vehicle: other 93 % of control | [3] 89 % of control | dose: 200.0 mg/kg/injection, schedule: Q04DX003 (ip), vehicle: other 92 % of control | [4] 90 % of control | dose: 400.0 mg/kg/injection, schedule: Q04DX003 (ip), vehicle: other 89 % of control

CC(=O)/C(C)=N/Nc1ccccc1
inactive: [5] 101 % of control | [6] 106 % of control | [7] 106 % of control

CC(C)CC(CC(C)C)NCCOC(=O)c1ccc(N)cc1
inactive: dose: 75.0 mg/kg/injection, schedule: Q01DX001 (ip), vehicle: other 106 % of control | dose: 150.0 mg/kg/injection, schedule: Q01DX001 (ip), vehicle: other 103 % of control

Cc1ccc(S(=O)(=O)F)cc1C(=O)NCc1ccc(OCc2nc(N)nc(N)c2-c2ccc(Cl)c(Cl)c2)cc1
inactive: dose: 32.5 mg/kg/injection, schedule: Q01DX001 (ip), vehicle: Klucel (hydroxypropylcellulose) (HPC) 96 % of control | dose: 65.0 mg/kg/injection, schedule: Q01DX001 (ip), vehicle: Klucel (hydroxypropylcellulose) (HPC) 96 % of control | dose: 130.0 mg/kg/injection, schedule: Q01DX001 (ip), vehicle: Klucel (hydroxypropylcellulose) (HPC) 96 % of control

CCOc1cc(C(F)(F)F)nc2c3c(cc(OC)c12)CCCN3CC
inactive: [5] 102 % of control | [6] 100 % of control | [7] 97 % of control

CCCCCCCCCCCCCCCCS(=O)(=O)N/N=C(/c1ccc(N)cc1Cl)N1CCCCC1
inactive: [1] 86 % of control | [8] 94 % of control | [9] 91 % of control

O=C(O)CNCCN1CC(=O)NC1=S
inactive: [10] 107 % of control | [11] 92 % of control | dose: 400.0 mg/kg/injection, schedule: Q04DX002 (ip), vehicle: saline with Tween-80 90 % of control

O=C(NO)c1ccccn1
inactive: dose: 90.0 mg/kg/injection, schedule: Q01DX015 (ip), vehicle: water 97 % of control | dose: 130.0 mg/kg/injection, schedule: Q01DX015 (ip), vehicle: water 101 % of control | dose: 133.0 mg/kg/injection, schedule: Q01DX015 (ip), vehicle: water 97 % of control | dose: 200.0 mg/kg/injection, schedule: Q01DX015 (ip), vehicle: water 110 % of control

C=CC/C=C/C1CCCCC1
inactive: [12] 92 % of control | [13] 100 % of control | [14] 89 % of control

Cc1nc2c(nc1C)C(=O)C=CC2=O
inactive: dose: 5.0 mg/kg/injection, schedule: Q01DX001 (ip), vehicle: carboxymethylcellulose (CMC) 100 % of control | dose: 10.0 mg/kg/injection, schedule: Q01DX001 (ip), vehicle: carboxymethylcellulose (CMC) 96 % of control | dose: 20.0 mg/kg/injection, schedule: Q01DX001 (ip), vehicle: carboxymethylcellulose (CMC) 94 % of control

O=C(/C=C/C(=O)Oc1c(Cl)cc(Cl)cc1Cl)Oc1c(Cl)cc(Cl)cc1Cl
inactive: [2] 106 % of control | [1] 96 % of control | [5] 96 % of control | [3] 104 % of control | [8] 105 % of control | [6] 93 % of control | [4] 96 % of control | [9] 98 % of control | [7] 91 % of control

COc1ccc2c3c1OC1c4[nH]ncc4CC4C(C2)N(C)CCC314 (centres undefined)
inactive: [1] 104 % of control | [8] 93 % of control | [9] 106 % of control

O=C(CI)Nc1ccc(Cl)c(Cl)c1
inactive: dose: 25.0 mg/kg/injection, schedule: Q01DX009 (ip), vehicle: Klucel (hydroxypropylcellulose) (HPC) 95 % of control | dose: 50.0 mg/kg/injection, schedule: Q01DX009 (ip), vehicle: Klucel (hydroxypropylcellulose) (HPC) 94 % of control | [2] 93 % of control

Cc1c(C)c(C)c([N+](=O)[O-])c([N+](=O)[O-])c1C
inactive: [12] 112 % of control | [13] 93 % of control | [10] 97 % of control | [14] 93 % of control | [11] 114 % of control

NOC(=O)c1ccccc1
inactive: [15] 105 % of control | [16] 102 % of control

CC(C)(C)C(=O)CC(=O)C(C)(C)C.CC(C)(C)C(=O)CC(=O)C(C)(C)C.CC(C)(C)C(=O)CC(=O)C(C)(C)C.[Sm]
inactive: dose: 100.0 mg/kg/injection, schedule: Q01DX005 (ip), vehicle: saline 112 % of control | dose: 100.0 mg/kg/injection, schedule: Q01DX009 (ip), vehicle: saline 106 % of control | [15] 92 % of control | dose: 200.0 mg/kg/injection, schedule: Q01DX005 (ip), vehicle: saline 109 % of control | dose: 200.0 mg/kg/injection, schedule: Q01DX009 (ip), vehicle: saline 103 % of control | [16] 95 % of control | dose: 400.0 mg/kg/injection, schedule: Q01DX005 (ip), vehicle: saline 98 % of control | dose: 400.0 mg/kg/injection, schedule: Q01DX009 (ip), vehicle: saline 98 % of control | dose: 400.0 mg/kg/injection, schedule: Q04DX002 (ip), vehicle: saline 103 % of control

Cc1cn(C2OC(CO)C(O)C2O)c(=O)[nH]c1=O (centres undefined)
inactive: dose: 3.75 mg/kg/injection, schedule: Q01DX Z (ip), vehicle: saline 86 % of control | dose: 6.25 mg/kg/injection, schedule: Q03HX024 (ip), vehicle: saline 102 % of control | dose: 7.5 mg/kg/injection, schedule: Q01DX Z (ip), vehicle: saline 88 % of control | dose: 12.5 mg/kg/injection, schedule: Q03HX024 (ip), vehicle: saline 94 % of control | dose: 25.0 mg/kg/injection, schedule: Q03HX024 (ip), vehicle: saline 107 % of control | dose: 30.0 mg/kg/injection, schedule: Q01DX Z (ip), vehicle: saline 86 % of control | dose: 50.0 mg/kg/injection, schedule: Q01DX001 (ip), vehicle: carboxymethylcellulose (CMC) 116 % of control | dose: 50.0 mg/kg/injection, schedule: Q03HX024 (ip), vehicle: saline 102 % of control | dose: 60.0 mg/kg/injection, schedule: Q01DX Z (ip), vehicle: saline 92 % of control | dose: 100.0 mg/kg/injection, schedule: Q01DX001 (ip), vehicle: carboxymethylcellulose (CMC) 97 % of control | dose: 100.0 mg/kg/injection, schedule: Q01DX001 (ip), vehicle: saline 87 % of control | dose: 200.0 mg/kg/injection, schedule: Q01DX001 (ip), vehicle: carboxymethylcellulose (CMC) 106 % of control | dose: 200.0 mg/kg/injection, schedule: Q01DX001 (ip), vehicle: saline 92 % of control | dose: 400.0 mg/kg/injection, schedule: Q01DX001 (ip), vehicle: carboxymethylcellulose (CMC) 95 % of control | dose: 400.0 mg/kg/injection, schedule: Q01DX001 (ip), vehicle: saline 90 % of control
